Data from patent US9474275B2, “Cyanoenamines and their use as fungicides” (priority 2010, dated 2016).

Key:
[1] = method [a]: LC-MS at pH 2.7, 0.1% formic acid in water / acetonitrile, linear gradient 10% to 95% acetonitrile
Procedure: Measurement of log P values was performed according EEC directive 79/831 Annex V.A8 by HPLC (High Performance Liquid Chromatography) on reversed phase columns with the following methods:
^[a] measurement of LC-MS was done at pH 2.7 with 0.1% formic acid in water and with acetonitrile (contains 0.1% formic acid) as eluent with a linear gradient from 10% acetonitrile to 95% acetonitrile.

Phytophthora infestans = assay type: in vivo; conditions: tomato plants, preventive spray, 500 ppm of active ingredient, evaluated 7 days after inoculation; 0% = untreated control, 100% = no disease

For `CCCC(=O)C(C#N)=C(NC(C)C(C)OC)c1cccnc1Cl` (mixture of isomers) [Compound 114], the LogP [1] was 3.02^[a] and the efficacy (Phytophthora infestans) was 95%.
In the case of `CCCC(=O)C(C#N)=C(NC(C)c1ccco1)c1cccnc1Cl` (racemic) [Compound 99], the LogP [1] is reported as 3.31^[a].
In the case of `CCCC(=O)C(C#N)=C(NC(C)C1=NOCC1)c1cccnc1Cl` (racemic) [Compound 100], the LogP [1] is reported as 2.47^[a] and the efficacy (Phytophthora infestans) is reported as 95%.
With `CCCC(=O)C(C#N)=C(NC(C)C1(C)CC1)c1cccnc1Cl` (racemic) [Compound 103] the LogP [1] was 3.57^[a] and the efficacy (Phytophthora infestans) was 95%.
In the case of `CCCC(=O)C(C#N)=C(NC(C)C1CCC1)c1cccnc1Cl` (racemic) [Compound 104], the LogP [1] is reported as 3.81^[a] and the efficacy (Phytophthora infestans) is reported as 95%.
In the case of `CCCC(=O)C(C#N)=C(NC(C)c1nc(C)c(C)s1)c1cccnc1Cl` (racemic) [Compound 105], the LogP [1] is reported as 3.02^[a].
For `C#CC(C)NC(=C(C#N)C(=O)CCC)c1cccnc1Cl` (racemic) [Compound 112], the LogP [1] was 2.9^[a] and the efficacy (Phytophthora infestans) was 83%.
For `CC#CC(C)NC(=C(C#N)C(=O)CCC)c1cccnc1Cl` (racemic) [Compound 113], the LogP [1] was 3.09^[a] and the efficacy (Phytophthora infestans) was 85%.
With `CCCC(=O)C(C#N)=C(NC(C)CC(C)C)c1cccnc1Cl` (racemic) [Compound 115] the LogP [1] was 3.99^[a].
With `CCCC(=O)C(C#N)=C(NC(C)CCc1ccccc1)c1cccnc1Cl` (racemic) [Compound 116] the LogP [1] was 4.16^[a] and the efficacy (Phytophthora infestans) was 85%.
In the case of `CCCC(=O)C(C#N)=C(NC(C)CCC)c1cccnc1Cl` (racemic) [Compound 117], the LogP [1] is reported as 3.65^[a] and the efficacy (Phytophthora infestans) is reported as 80%.
With `CCCC(=O)C(C#N)=C(NC(C)CC1CC1)c1cccnc1Cl` (racemic) [Compound 118] the LogP [1] was 3.63^[a].
With `CCCC(=O)C(C#N)=C(NC(C)C1(C)CC1)c1cn(C)nc1C(F)F` (racemic) [Compound 121] the LogP [1] was 3.33^[a] and the efficacy (Phytophthora infestans) was 93%.
With `CCCC(=O)C(C#N)=C(NC(C)CC)c1cn(C)nc1C(F)F` (racemic) [Compound 122] the LogP [1] was 2.98^[a] and the efficacy (Phytophthora infestans) was 90%.
For `CCCC(=O)C(C#N)=C(NC(C)c1nc(C)c(C)s1)c1cn(C)nc1C(F)F` (racemic) [Compound 123], the LogP [1] was 2.92^[a].
With `C#CC(C)NC(=C(C#N)C(=O)CCC)c1cn(C)nc1C(F)F` (racemic) [Compound 124] the LogP [1] was 2.66^[a] and the efficacy (Phytophthora infestans) was 93%.
With `CC#CC(C)NC(=C(C#N)C(=O)CCC)c1cn(C)nc1C(F)F` (racemic) [Compound 125] the LogP [1] was 2.98^[a] and the efficacy (Phytophthora infestans) was 75%.
In the case of `CCCC(=O)C(C#N)=C(NC(C)CC(C)C)c1cn(C)nc1C(F)F` (racemic) [Compound 127], the LogP [1] is reported as 3.63^[a].
With `CCCC(=O)C(C#N)=C(NC(C)CCc1ccccc1)c1cn(C)nc1C(F)F` (racemic) [Compound 128] the LogP [1] was 3.83^[a].
With `CCCC(=O)C(C#N)=C(NC(C)CCC)c1cn(C)nc1C(F)F` (racemic) [Compound 129] the LogP [1] was 3.33^[a] and the efficacy (Phytophthora infestans) was 75%.
With `CCCC(=O)C(C#N)=C(NC(C)CC1CC1)c1cn(C)nc1C(F)F` (racemic) [Compound 130] the LogP [1] was 3.35^[a] and the efficacy (Phytophthora infestans) was 85%.
With `CCCC(=O)C(C#N)=C(NC(C)C(=O)OCC)c1cn(C)nc1C(F)F` (racemic) [Compound 131] the LogP [1] was 2.78^[a] and the efficacy (Phytophthora infestans) was 80%.
With `CCCC(=O)C(C#N)=C(NC(C)c1ccco1)c1cn(C)nc1C(F)F` (racemic) [Compound 132] the LogP [1] was 3.04^[a] and the efficacy (Phytophthora infestans) was 90%.
In the case of `COCC(=O)C(C#N)=C(NC(C)c1ccccn1)c1cccnc1Cl` (stereo not drawn) [Compound 1], the LogP [1] is reported as 1.78^[a] and the efficacy (Phytophthora infestans) is reported as 93%.
For `CC(C)C(C)NC(=C(C#N)C(=O)C1(Cl)CC1)c1cccnc1Cl` (stereo not drawn) [Compound 3], the LogP [1] was 3.44^[a].
For `CC(C)C(C)NC(=C(C#N)C(=O)C1CCCCO1)c1cccnc1Cl` (stereo not drawn) [Compound 6], the LogP [1] was 3.00^[a].
With `CC(C)C(C)NC(=C(C#N)C(=O)C1CCCC1)c1cccnc1Cl` (stereo not drawn) [Compound 7] the LogP [1] was 4.23^[a].
With `CC(NC(=C(C#N)C(=O)Cc1ccccc1)c1cccnc1Cl)C1CC1` (stereo not drawn) [Compound 8] the LogP [1] was 3.23^[a].
In the case of `CC(C)C(=O)C(C#N)=C(NC(C)C(C)C)c1cccnc1Cl` (stereo not drawn) [Compound 9], the LogP [1] is reported as 3.60^[a].
With `CC(NC(=C(C#N)C(=O)C1CCC1)c1cccnc1Cl)C1CC1` (stereo not drawn) [Compound 12] the LogP [1] was 3.44^[a].
With `CC(C)C(C)NC(=C(C#N)C(=O)CN(C)C)c1cccnc1Cl` (stereo not drawn) [Compound 13] the LogP [1] was 1.39^[a].
In the case of `CC(NC(=C(C#N)C(=O)C1CCCC1)c1cccnc1Cl)C1CC1` (stereo not drawn) [Compound 14], the LogP [1] is reported as 3.83^[a].
With `CNCC(=O)C(C#N)=C(NC(C)C(C)C)c1cccnc1Cl` (stereo not drawn) [Compound 15] the LogP [1] was 1.50^[a].
With `CC(C)OCC(=O)C(C#N)=C(NC(C)C(C)C)c1cccnc1Cl` (stereo not drawn) [Compound 19] the LogP [1] was 3.19^[a].
In the case of `CC(NC(=C(C#N)C(=O)C1CCCC1)c1cn(C)nc1C(F)F)C1CC1` (stereo not drawn) [Compound 21], the LogP [1] is reported as 3.58^[a].
For `CCC(=O)C(C#N)=C(NC(C)C1CC1)c1cccnc1Cl` (stereo not drawn) [Compound 22], the LogP [1] was 2.88^[a].
In the case of `CC(C)C(C)NC(=C(C#N)C(=O)Cc1ccccc1)c1cccnc1Cl` (stereo not drawn) [Compound 29], the LogP [1] is reported as 3.85^[a].
For `CCCC(=O)C(C#N)=C(NC1CC1CC)c1cccnc1Cl` (stereo not drawn) [Compound 31], the LogP [1] was 3.51^[a].
In the case of `CC(C)C(C)NC(=C(C#N)C(=O)CCl)c1cn(C)nc1C(F)F` (stereo not drawn) [Compound 32], the LogP [1] is reported as 2.86^[a].
For `CC(C)C(C)NC(=C(C#N)C(=O)CN1CCCC1)c1cccnc1Cl` (stereo not drawn) [Compound 35], the LogP [1] was 1.52^[a].
With `CCC(F)(F)C(=O)C(C#N)=C(NC(C)C(C)C)c1cccnc1Cl` (stereo not drawn) [Compound 37] the LogP [1] was 3.55^[a].
For `CCCCC(=O)C(C#N)=C(NC1CC1CC)c1cccnc1Cl` (stereo not drawn) [Compound 38], the LogP [1] was 3.94^[a].
In the case of `CC(C)C(C)NC(=C(C#N)C(=O)CNC1CC1)c1cccnc1Cl` (stereo not drawn) [Compound 39], the LogP [1] is reported as 1.74^[a].
In the case of `COCC(=O)C(C#N)=C(NC(C)C(C)C)c1cccnc1Cl` (stereo not drawn) [Compound 41], the LogP [1] is reported as 2.48^[a].
For `CC(NC(=C(C#N)C(=O)C1CC1)c1cccnc1Cl)C1CC1` (stereo not drawn) [Compound 42], the LogP [1] was 3.06^[a].
In the case of `CCCC(=O)C(C#N)=C(NC(C)C1CC1)c1cccnc1Cl` (stereo not drawn) [Compound 43], the LogP [1] is reported as 3.25^[a].
With `CC(C)C(C)NC(=C(C#N)C(=O)CCl)c1cccnc1Cl` (stereo not drawn) [Compound 45] the LogP [1] was 3.02^[a].
With `CSCC(=O)C(C#N)=C(NC(C)C(C)C)c1cccnc1Cl` (stereo not drawn) [Compound 46] the LogP [1] was 3.13^[a].
In the case of `CC(C)C(C)NC(=C(C#N)C(=O)c1ccco1)c1cccnc1Cl` (stereo not drawn) [Compound 48], the LogP [1] is reported as 3.11^[a].
With `COCC(=O)C(C#N)=C(NC(C)C1CC1)c1cccnc1Cl` (stereo not drawn) [Compound 49] the LogP [1] was 2.23^[a].
In the case of `CNCC(=O)C(C#N)=C(NC(C)C(C)C)c1cn(C)nc1C(F)F` (stereo not drawn) [Compound 50], the LogP [1] is reported as 1.60^[a].
In the case of `CC(C)C(C)NC(=C(C#N)C(=O)C1CCCCC1)c1cccnc1Cl` (stereo not drawn) [Compound 53], the LogP [1] is reported as 4.50^[a].
In the case of `CC(NC(=C(C#N)C(=O)CC1CC1)c1cccnc1Cl)C1CC1` (stereo not drawn) [Compound 54], the LogP [1] is reported as 3.31^[a].
For `CC(NC(=C(C#N)C(=O)c1ccco1)c1cccnc1Cl)C1CC1` (stereo not drawn) [Compound 55], the LogP [1] was 2.80^[a].
In the case of `CCNCC(=O)C(C#N)=C(NC(C)C(C)C)c1cccnc1Cl` (stereo not drawn) [Compound 57], the LogP [1] is reported as 1.68^[a].
In the case of `CC(C)C(C)NC(=C(C#N)C(=O)CNC1CC1)c1cn(C)nc1C(F)F` (stereo not drawn) [Compound 58], the LogP [1] is reported as 1.78^[a].
In the case of `CCNCC(=O)C(C#N)=C(NC(C)C(C)C)c1cn(C)nc1C(F)F` (stereo not drawn) [Compound 60], the LogP [1] is reported as 1.63^[a].
In the case of `CC(C)C(C)NC(=C(C#N)C(=O)C1CC1C)c1cccnc1Cl` (stereo not drawn) [Compound 61], the LogP [1] is reported as 3.80^[a].
In the case of `COCCC(=O)C(C#N)=C(NC(C)C(C)C)c1cccnc1Cl` (stereo not drawn) [Compound 65], the LogP [1] is reported as 2.78^[a].
For `CC(C)C(C)NC(=C(C#N)C(=O)CN1CCCC1)c1cn(C)nc1C(F)F` (stereo not drawn) [Compound 66], the LogP [1] was 1.31^[a].
For `COC(C)C(=O)C(C#N)=C(NC(C)C(C)C)c1cccnc1Cl` (stereo not drawn) [Compound 67], the LogP [1] was 2.70^[a].
In the case of `CCC(=O)C(C#N)=C(NC1CC1CC)c1cccnc1Cl` (stereo not drawn) [Compound 68], the LogP [1] is reported as 3.13^[a].
In the case of `CCC(=O)C(C#N)=C(NC(C)C1CC1)c1cn(C)nc1C(F)F` (stereo not drawn) [Compound 69], the LogP [1] is reported as 2.73^[a].
With `CC(C)C(C)NC(=C(C#N)C(=O)C1CC1)c1cccnc1Cl` (stereo not drawn) [Compound 71] the LogP [1] was 3.39^[a].
For `CC(C)C(C)NC(=C(C#N)C(=O)CCCCl)c1cccnc1Cl` (stereo not drawn) [Compound 74], the LogP [1] was 3.63^[a].
With `CCC(C)C(=O)C(C#N)=C(NC(C)C(C)C)c1cccnc1Cl` (stereo not drawn) [Compound 76] the LogP [1] was 3.9^[a].
`COCC(=O)C(C#N)=C(NC(C)c1nccs1)c1cccnc1Cl` (stereo not drawn) [Compound 77] gave an efficacy (Phytophthora infestans) of 93%.
For `CC(C)C(C)NC(=C(C#N)C(=O)C1CCCC1)c1cn(C)nc1C(F)F` (stereo not drawn) [Compound 78], the LogP [1] was 3.81^[a].
In the case of `CCCC(=NOC)C(C#N)=C(NC(C)C(C)C)c1cn(C)nc1C(F)F` (stereo not drawn) [Compound 79], the LogP [1] is reported as 4.24^[a].
For `COCC(=O)C(C#N)=C(NC(C)c1nccs1)c1cn(C)nc1C(F)F` (stereo not drawn) [Compound 82], the LogP [1] was 1.76^[a].
With `CCCC(=O)C(C#N)=C(NC(C)C(C)C)c1cc(C)nn1C(F)F` (stereo not drawn) [Compound 92] the LogP [1] was 3.92^[a].
For `Cc1cc(C(NC(C)C(C)C)=C(C#N)C(=O)CC2CC2)n(C(F)F)n1` (stereo not drawn) [Compound 93], the LogP [1] was 3.87^[a].
With `CCCC(=O)C(C#N)=C(NC(C)c1nccs1)c1cc(C)nn1C(F)F` (stereo not drawn) [Compound 94] the LogP [1] was 3.11^[a].
In the case of `CCCC(=O)C(C#N)=C(NC(C)COC)c1cc(C)nn1C(F)F` (stereo not drawn) [Compound 95], the LogP [1] is reported as 3.13^[a].
For `COCC(C)NC(=C(C#N)C(=O)CC1CC1)c1cc(C)nn1C(F)F` (stereo not drawn) [Compound 96], the LogP [1] was 3.11^[a].
With `Cc1cc(C(NC(C)c2nccs2)=C(C#N)C(=O)CC2CC2)n(C(F)F)n1` (stereo not drawn) [Compound 97] the LogP [1] was 3.09^[a].
In the case of `CCCC(=O)C(C#N)=C(NC(C)Cc1ccccc1)c1cccnc1Cl` (stereo not drawn) [Compound 108], the LogP [1] is reported as 3.83^[a].
In the case of `CCCC(=O)C(C#N)=C(NC(C)C(=O)NC)c1cn(C)nc1C(F)F` (stereo not drawn) [Compound 109], the LogP [1] is reported as 1.79^[a].
With `CCCC(=O)C(C#N)=C(NC(C)Cc1ccccc1)c1cn(C)nc1C(F)F` (stereo not drawn) [Compound 111] the LogP [1] was 3.55^[a].
